Experimental data from patent US10568950B1, “Peptides, combination of peptides and scaffolds for use in immunotherapeutic treatment of various cancers” (Immatics Biotechnologies GmbH, priority 2015, dated 2020).

Tested on: HLA-A*24
Experiment: MHC binding assay: UV-ligand exchange, beta2m ELISA (peptide exchange yield)
Design: species or system human
Conditions: binding to HLA-A*24, β2m ELISA
Description: Candidate peptides for T cell based therapies according to the present invention were further tested for their MHC binding capacity (affinity). The individual peptide-MHC complexes were produced by UV-ligand exchange, where a UV-sensitive peptide is cleaved upon UV-irradiation, and exchanged with the peptide of interest as analyzed. Only peptide candidates that can effectively bind and stabilize the peptide-receptive MHC molecules prevent dissociation of the MHC complexes. To determine the yield of the exchange reaction, an ELISA was performed based on the detection of the light chain (β2m) of stabilized MHC complexes. The assay was performed as generally described in Rodenko et al. (Rodenko et al., 2006).
96 well MAXISorp plates (NUNC) were coated over night with 2 ug/ml streptavidin in PBS at room temperature, washed 4× and blocked for 1 h at 37° C. in 2% BSA containing blocking buffer. […] Peptide-MHC monomers of the UV-exchange reaction were diluted 100 fold in blocking buffer. Samples were incubated for 1 h at 37° C., washed four times, incubated with 2 ug/ml HRP conjugated anti-βm for 1 h at 37° C., washed again and detected with TMB solution that is stopped with […]. Absorption was measured at 450 nm. Candidate peptides that show a high exchange yield (preferably higher than 50%, most preferred higher than 75%) are generally preferred for a generation and production of antibodies or fragments thereof, and/or T cell receptors or fragments thereof, as they show sufficient avidity to the MHC molecules and prevent dissociation of the MHC complexes.

Row | Substance | Peptide exchange (MHC class I binding score, peptide exchange yield)
1 | 153 (VYVPFGGKSMITF; listed as Homo sapiens) [compound 153] | ++++ (>= 75% = ++++)
2 | 206 (NYLDVATFL; listed as Homo sapiens) [compound 206] | ++++ (>= 75% = ++++)
3 | 223 (TFITQSPLL; listed as Homo sapiens) [compound 223] | ++++ (>= 75% = ++++)
4 | 211 (VFKSEGAYF; listed as Homo sapiens) [compound 211] | ++++ (>= 75% = ++++)
5 | 276 (QYLDVLHAL; listed as Homo sapiens) [compound 276] | ++++ (>= 75% = ++++)
6 | 210 (IYAGVGEFSF; listed as Homo sapiens) [compound 210] | ++++ (>= 75% = ++++)
7 | 231 (AFADVSVKF; listed as Homo sapiens) [compound 231] | ++++ (>= 75% = ++++)
8 | 319 (KYSDVKNLI; listed as Homo sapiens) [compound 319] | ++++ (>= 75% = ++++)
9 | 129 (KYIDYLMTW; listed as Homo sapiens) [compound 129] | ++++ (>= 75% = ++++)
10 | 313 (KYTHFIQSF; listed as Homo sapiens) [compound 313] | ++++ (>= 75% = ++++)
11 | 305 (NYENKQYLF; listed as Homo sapiens) [compound 305] | ++++ (>= 75% = ++++)
12 | 293 (VYPHFSTTNLI; listed as Homo sapiens) [compound 293] | ++++ (>= 75% = ++++)
13 | 185 (QYLVHVNDL; listed as Homo sapiens) [compound 185] | ++++ (>= 75% = ++++)
14 | 301 (KFDDVTMLF; listed as Homo sapiens) [compound 301] | ++++ (>= 75% = ++++)
15 | 274 (KQLDIANYELF; listed as Homo sapiens) [compound 274] | ++++ (>= 75% = ++++)
16 | 297 (TYIDTRTVF; listed as Homo sapiens) [compound 297] | ++++ (>= 75% = ++++)
17 | 265 (SYLNEAFSF; listed as Homo sapiens) [compound 265] | ++++ (>= 75% = ++++)
18 | 298 (AYKSEVVYF; listed as Homo sapiens) [compound 298] | ++++ (>= 75% = ++++)
19 | 286 (SYGTILSHI; listed as Homo sapiens) [compound 286] | ++++ (>= 75% = ++++)
20 | 311 (EYLQNLNHI; listed as Homo sapiens) [compound 311] | ++++ (>= 75% = ++++)
21 | 252 (AFGQETNVPLNNF; listed as Homo sapiens) [compound 252] | ++++ (>= 75% = ++++)
22 | 221 (KYIGNLDLL; listed as Homo sapiens) [compound 221] | ++++ (>= 75% = ++++)
23 | 289 (FFHEGQYVF; listed as Homo sapiens) [compound 289] | ++++ (>= 75% = ++++)
24 | 187 (AYAANVHYL; listed as Homo sapiens) [compound 187] | ++++ (>= 75% = ++++)
25 | 264 (LYTETRLQF; listed as Homo sapiens) [compound 264] | ++++ (>= 75% = ++++)

Row | Substance | Peptide exchange (MHC class I binding score, peptide exchange yield)
26 | 173 (QYLEKYYNL; listed as Homo sapiens) [compound 173] | ++++ (>= 75% = ++++)
27 | 209 (AFIETPIPLF; listed as Homo sapiens) [compound 209] | ++++ (>= 75% = ++++)
28 | 116 (AYVIAVHLF; listed as Homo sapiens) [compound 116] | ++++ (>= 75% = ++++)
29 | 357 (QFITSTNTF; listed as Homo sapiens) [compound 357] | ++++ (>= 75% = ++++)
30 | 220 (SYSEIKDFL; listed as Homo sapiens) [compound 220] | ++++ (>= 75% = ++++)
31 | 379 (VFIAQGYTL; listed as Homo sapiens) [compound 379] | ++++ (>= 75% = ++++)
32 | 217 (IYISNSIYF; listed as Homo sapiens) [compound 217] | ++++ (>= 75% = ++++)
33 | 148 (SYGTVSQIF; listed as Homo sapiens) [compound 148] | ++++ (>= 75% = ++++)
34 | 262 (VYSSQFETI; listed as Homo sapiens) [compound 262] | ++++ (>= 75% = ++++)
35 | 184 (IYSVGAFENF; listed as Homo sapiens) [compound 184] | ++++ (>= 75% = ++++)
36 | 272 (RYVFPLPYL; listed as Homo sapiens) [compound 272] | ++++ (>= 75% = ++++)
37 | 208 (TYLEKIDGF; listed as Homo sapiens) [compound 208] | ++++ (>= 75% = ++++)
38 | 275 (KYGTLDVTF; listed as Homo sapiens) [compound 275] | ++++ (>= 75% = ++++)
39 | 292 (FYPQIINTF; listed as Homo sapiens) [compound 292] | ++++ (>= 75% = ++++)
40 | 261 (GYIKLINFI; listed as Homo sapiens) [compound 261] | ++++ (>= 75% = ++++)
41 | 260 (VYMNVMTRL; listed as Homo sapiens) [compound 260] | ++++ (>= 75% = ++++)
42 | 290 (KYGDFKLLEF; listed as Homo sapiens) [compound 290] | ++++ (>= 75% = ++++)
43 | 249 (RYHPTTCTI; listed as Homo sapiens) [compound 249] | ++++ (>= 75% = ++++)
44 | 97 (TYTFLKETF; listed as Homo sapiens) [compound 97] | ++++ (>= 75% = ++++)
45 | 135 (VYEAMVPLF; listed as Homo sapiens) [compound 135] | ++++ (>= 75% = ++++)
46 | 197 (IFTDIFHYL; listed as Homo sapiens) [compound 197] | ++++ (>= 75% = ++++)
47 | 296 (SYQVIFQHF; listed as Homo sapiens) [compound 296] | ++++ (>= 75% = ++++)
48 | 128 (VYPFDWQYI; listed as Homo sapiens) [compound 128] | ++++ (>= 75% = ++++)
49 | 196 (GYIRGSWQF; listed as Homo sapiens) [compound 196] | ++++ (>= 75% = ++++)
50 | 149 (SYGTVSQI; listed as Homo sapiens) [compound 149] | ++++ (>= 75% = ++++)
